Source: article PMC4323178 (Journal of thrombosis and haemostasis : JTH, 2011)

Tests used:
Settings in all cases: SEM
DR1501 = DR1501 (Homo sapiens, UniProt P01903+P01911); format: binding
HLA-DR0101 = HLA-DR0101 (Homo sapiens, UniProt P01903+P01911, A100R/D57E/F55L/F60I/F76Y/I96L/L162R/M171V/P40L/Q125E/R42F/V115G/Y59C); assay: biochemical
DR0301 = DR0301 (Homo sapiens, UniProt P01903+P01911, A100K/A102G/A103R/A169T/F55Y/I96L/K41T/L162R/M171V/P40S/Q125H/Q178H/Q39Y/R42S/S66N/T106N/W38E/Y61H); format: binding

CC[C@H](C)[C@H](NC(=O)[C@H](CC(N)=O)NC(=O)[C@H](CCC(=O)O)NC(=O)[C@@H](NC(=O)[C@H](CC(C)C)NC(=O)[C@H](Cc1ccc(O)cc1)NC(=O)[C@H](Cc1c[nH]c2ccccc12)NC(=O)[C@H](CO)NC(=O)[C@H](CCCNC(=N)N)NC(=O)[C@H](CC(N)=O)NC(=O)[C@@H](N)CCC(=O)O)[C@@H](C)O)C(=O)N[C@@H](CCC(N)=O)C(=O)N[C@@H](CS)C(=O)N[C@@H](Cc1ccccc1)C(=O)N[C@@H](CC(C)C)C(=O)N1CCC[C@H]1C(=O)N[C@@H](CC(N)=O)C(=O)N1CCC[C@H]1C(=O)N[C@@H](C)C(=O)NCC(=O)O [FVIII581–600,593C]
IC50 (DR1501): 56 ± 4 µM
IC50 (HLA-DR0101): 50 ± 3 µM

CC[C@H](C)[C@H](NC(=O)[C@H](CC(N)=O)NC(=O)[C@@H](N)CCC(=O)O)C(=O)N[C@@H](CCC(N)=O)C(=O)N[C@@H](CCCNC(=N)N)C(=O)N[C@@H](Cc1ccccc1)C(=O)N[C@@H](CC(C)C)C(=O)N1CCC[C@H]1C(=O)N[C@@H](CC(N)=O)C(=O)N1CCC[C@H]1C(=O)N[C@@H](C)C(=O)NCC(=O)N[C@H](C(=O)N[C@@H](CCC(N)=O)C(=O)N[C@@H](CC(C)C)C(=O)N[C@@H](CCC(=O)O)C(=O)N[C@@H](CC(=O)O)C(=O)N1CCC[C@H]1C(=O)N[C@@H](CCC(=O)O)C(=O)N[C@@H](Cc1ccccc1)C(=O)O)C(C)C [FVIII589–608]
IC50 (DR0301): 50 ± 4 µM
